# Assay results published in US20260285850A1, “SUBSTITUTED OXAZOLIDINONES AND IMIDAZOLINONES AS HERBICIDES” (FMC CORPORATION, priority 2023, published 2026).
# Legend:
# Assay type in all cases: in vivo
# soybean (Glycine max) [1] = test: Test A postemergence application, visual injury rating 0-100
# Text: (§1) Seeds of plant species selected from barnyardgrass (Echinochloa crus-galli), blackgrass (Alopecurus myosuroides), corn (Zea mays), foxtail, giant (giant foxtail, Setaria faberi), green foxtail (Setaria viridis), goosegrass (Eleusine indica), kochia (Bassia scoparia), oat, wild (wild oat, Avena fatua), palmer (palmer amaranth, palmer pigweed, Amaranthus palmeri), ragweed (common ragweed, Ambrosia artemisiifolia), ryegrass, Italian (italian ryegrass, Lolium multiflorum), soybean (Glycine max) and wheat (Triticum aestivum) were planted into a blend of loam soil and sand and treated preemergence with a directed soil spray using test chemicals formulated in a non-phytotoxic solvent mixture which included a surfactant.
# (§2) At the same time, plants selected from these crops and weed species and also galium (catchweed bedstraw, Galium aparine) and horseweed (Erigeron canadensis) were planted in pots containing the same blend of loam soil and sand and treated with postemergence applications of test chemicals formulated in the same manner. Plants ranged in height from 2 to 10 cm and were in the one- to two-leaf stage for the postemergence treatment. Treated plants and untreated controls were maintained in a greenhouse for 10 days, after which time all treated plants were compared to untreated controls and visually evaluated for injury. Plant response ratings, summarized in Table A, are based on a 0 to 100 scale where 0 is no effect and 100 is complete control. A dash (-) response means no test result.
# [2] = tested on: ryegrass, Italian (italian ryegrass, Lolium multiflorum); test: as above
# Text: as §1, §2
# [3] = tested on: ragweed (common ragweed, Ambrosia artemisiifolia); test: as above
# Text: as §1, §2
# [4] = tested on: wheat (Triticum aestivum); test: as above
# Text: as §1, §2
# [5] = tested on: oat, wild (wild oat, Avena fatua); test: as above
# Text: as §1, §2
# [6] = tested on: green foxtail (Setaria viridis); test: as above
# Text: as §1, §2
# [7] = tested on: blackgrass (Alopecurus myosuroides); test: as above
# Text: as §1, §2
# kochia (Bassia scoparia) [8] = test: as above
# Text: as §1, §2
# [9] = tested on: palmer (palmer amaranth, palmer pigweed, Amaranthus palmeri); test: as above
# Text: as §1, §2
# [10] = tested on: barnyardgrass (Echinochloa crus-galli); test: as above
# Text: as §1, §2
# corn (Zea mays) [11] = test: as above
# Text: as §1, §2
# rice (Oryza sativa) = test: Test B flooded paddy test, visual plant response rating 0-100; settings: 250 g ai/ha, Flood, applied to paddy water, evaluated after 13 days
# Description: (§3) Plant species in the flooded paddy test selected from barnyardgrass (Echinochloa crusgalli), ducksalad (Heteranthera limosa), rice (Oryza sativa), and sedge, umbrella (small-flower umbrella sedge, Cyperus difformis) were grown to the 2-leaf stage for testing. At time of treatment, test pots were flooded to 3 cm above the soil surface, treated by application of test compounds directly to the paddy water, and then maintained at that water depth for the duration of the test. Treated plants and controls were maintained in a greenhouse for 13 days, after which time all species were compared to controls and visually evaluated. […] A dash (-) response means no test result.
# [12] = tested on: barnyardgrass (Echinochloa crusgalli); test: as above; settings: 250 g ai/ha, Flood, applied to paddy water, evaluated after 13 days
# Description: as §3
# [13] = tested on: sedge, umbrella (small-flower umbrella sedge, Cyperus difformis); test: as above; settings: 250 g ai/ha, Flood, applied to paddy water, evaluated after 13 days
# Description: as §3
# [14] = tested on: ducksalad (Heteranthera limosa); test: as above; settings: 250 g ai/ha, Flood, applied to paddy water, evaluated after 13 days
# Description: as §3
# soybean (Glycine max) [15] = test: Test A preemergence soil spray, visual injury rating 0-100; settings: 10 days
# Text: as §1, §2
# [16] = tested on: ryegrass, Italian (italian ryegrass, Lolium multiflorum); test: as above; settings: 10 days
# Text: as §1, §2
# [17] = tested on: ragweed (common ragweed, Ambrosia artemisiifolia); test: as above; settings: 10 days
# Text: as §1, §2
# [18] = tested on: wheat (Triticum aestivum); test: as above; settings: 10 days
# Text: as §1, §2
# [19] = tested on: oat, wild (wild oat, Avena fatua); test: as above; settings: 10 days
# Text: as §1, §2
# [20] = tested on: green foxtail (Setaria viridis); test: as above; settings: 10 days
# Text: as §1, §2
# [21] = tested on: blackgrass (Alopecurus myosuroides); test: as above; settings: 10 days
# Text: as §1, §2
# kochia (Bassia scoparia) [22] = test: as above; settings: 10 days
# Text: as §1, §2
# [23] = tested on: palmer (palmer amaranth, palmer pigweed, Amaranthus palmeri); test: as above; settings: 16 g ai/ha, 0 to 100 scale, 10 days
# Text: as §1, §2
# [24] = tested on: barnyardgrass (Echinochloa crus-galli); test: as above; settings: 10 days
# Text: as §1, §2
# corn (Zea mays) [25] = test: as above; settings: 10 days
# Text: as §1, §2
# [26] = 62 g ai/ha, postemergence, 10 days, 0 = no effect, 100 = complete control
# [27] = Postemergence, 16 g ai/ha, greenhouse 10 days, 0 no effect, 100 complete control
# [28] = 62 g ai/ha, 0 = no effect, 100 = complete control
compound,measurement,setting,value
CCOC(=O)C1=CCC(NC(=O)C2(C)CN(c3cc(F)cc(F)c3)C(=O)O2)C1 (stereo not drawn) [Compound 111],Soybean plant response rating (0-100),soybean (Glycine max) [1]; [26],0
same,Soybean plant response rating (0 to 100 scale),soybean (Glycine max) [1]; [27],0
same,"Ryegrass, Italian plant response rating (0-100)",[2]; [26],0
same,"Ryegrass, Italian plant response rating (0 to 100 scale)",[2]; [27],0
same,Ragweed plant response rating (0-100),[3]; [26],0
same,Ragweed plant response rating (0 to 100 scale),[3]; [27],0
same,Wheat plant response rating (0-100),[4]; [26],20
same,Wheat plant response rating (0 to 100 scale),[4]; [27],0
same,"Oat, Wild plant response rating (0-100)",[5]; [26],0
same,"Oat, Wild plant response rating (0 to 100 scale)",[5]; [27],0
same,"Foxtail, Green plant response rating (0-100)",[6]; [26],0
same,"Foxtail, Green plant response rating (0 to 100 scale)",[6]; [27],0
same,Blackgrass plant response rating (0-100),[7]; [26],0
same,Blackgrass plant response rating (0 to 100 scale),[7]; [27],0
same,Kochia plant response rating (0-100),kochia (Bassia scoparia) [8]; [26],0
same,Kochia plant response rating (0 to 100 scale),kochia (Bassia scoparia) [8]; [27],0
same,"Pigweed, Palmer plant response rating (0-100)",[9]; [26],10
same,"Pigweed, Palmer plant response rating (0 to 100 scale)",[9]; [27],0
same,Barnyardgrass plant response rating (0-100),[10]; [26],20
same,Barnyardgrass plant response rating (0 to 100 scale),[10]; [27],0
same,Corn plant response rating (0-100),corn (Zea mays) [11]; [26],0
same,Corn plant response rating (0 to 100 scale),corn (Zea mays) [11]; [27],0
same,"Plant response rating, Rice (0 to 100 scale, 0 is no effect and 100 is complete control)",rice (Oryza sativa),0
same,"Plant response rating, Barnyardgrass (0 to 100 scale, 0 is no effect and 100 is complete control)",[12],0
same,"Plant response rating, Sedge, Umbrella (0 to 100 scale, 0 is no effect and 100 is complete control)",[13],0
same,"Plant response rating, Ducksalad (0 to 100 scale, 0 is no effect and 100 is complete control)",[14],0
same,Soybean plant response rating,"soybean (Glycine max) [15]; 16 g ai/ha, 0 to 100 scale",100
same,Soybean plant response rating (0-100),soybean (Glycine max) [15]; [28],0
same,"Ryegrass, Italian plant response rating","[16]; 16 g ai/ha, 0 to 100 scale",0
same,"Ryegrass, Italian plant response rating (0-100)",[16]; [28],0
same,Ragweed plant response rating,"[17]; 16 g ai/ha, 0 to 100 scale",0
same,Ragweed plant response rating (0-100),[17]; [28],0
same,Wheat plant response rating,"[18]; 16 g ai/ha, 0 to 100 scale",0
same,Wheat plant response rating (0-100),[18]; [28],0
same,"Oat, Wild plant response rating","[19]; 16 g ai/ha, 0 to 100 scale",0
same,"Oat, Wild plant response rating (0-100)",[19]; [28],0
same,"Foxtail, Green plant response rating","[20]; 16 g ai/ha, 0 to 100 scale",0
same,"Foxtail, Green plant response rating (0-100)",[20]; [28],0
same,Blackgrass plant response rating,"[21]; 16 g ai/ha, 0 to 100 scale",0
same,Blackgrass plant response rating (0-100),[21]; [28],0
same,Kochia plant response rating,"kochia (Bassia scoparia) [22]; 16 g ai/ha, 0 to 100 scale",0
same,Kochia plant response rating (0-100),kochia (Bassia scoparia) [22]; [28],0
same,"Pigweed, Palmer plant response rating",[23],0
same,Barnyardgrass plant response rating,"[24]; 16 g ai/ha, 0 to 100 scale",0
same,Barnyardgrass plant response rating (0-100),[24]; [28],0
same,Corn plant response rating,"corn (Zea mays) [25]; 16 g ai/ha, 0 to 100 scale",0
same,Corn plant response rating (0-100),corn (Zea mays) [25]; [28],0
CC1(C(=O)NC2CC=C(C(=O)OCC3CC3)C2)CN(c2cc(Cl)cc(Cl)c2)C(=O)O1 (stereo not drawn) [Compound 198],"Plant response rating, Rice (0 to 100 scale, 0 is no effect and 100 is complete control)",rice (Oryza sativa),85
same,"Plant response rating, Barnyardgrass (0 to 100 scale, 0 is no effect and 100 is complete control)",[12],90
same,"Plant response rating, Sedge, Umbrella (0 to 100 scale, 0 is no effect and 100 is complete control)",[13],75
same,"Plant response rating, Ducksalad (0 to 100 scale, 0 is no effect and 100 is complete control)",[14],60
